Here are results for eleven compounds from US8569301B2, “6, 6-dioxo-6-thia-1, 4-diaza-naphthalenes as herbicides” (Syngenta Limited, priority 2009, dated 2013).

Assay type in all cases: in vivo
The test system of assay [1] is crop and representative weed species. The assay is described as follows: Example B2 herbicidal action post-emergence (Table B2). Particulars: application post-emergence, rate 500 g/ha, evaluated after 15 days, score 10 to 0; for herbicidal damage score AMARE (10=total damage to plant; 0=no damage to plant): AMARE = Amaranthus retroflexus; for herbicidal damage score ECHCG (10=total damage to plant; 0=no damage to plant): ECHCG = Echinochloa crus-galli; for herbicidal damage score IPOHE (10=total damage to plant; 0=no damage to plant): IPOHE = Ipomea hederaceae; for herbicidal damage score SETFA (10=total damage to plant; 0=no damage to plant): SETFA = Setaria faberi. As to the method: Seeds of crop and representative weed species were sown in standard soil in pots. After cultivation for 14 days under controlled conditions in a glasshouse (at 22/16° C., day/night; 16 hours light; 65% humidity), the plants were sprayed. The spray solution was prepared by dissolving the technical active ingredient in acetone containing 10.56 wt % Emulsogen EL, 42.22 wt % N-methylpyrrolidone and 2.22 wt % DPG-monoethyl ether to give a 5% stock solution. This was then diluted with water containing 0.2% (v/v) of the adjuvant X-77 to give the desired treatment concentration.
The test plants were then grown on under controlled conditions in a glasshouse (at 22/16° C., day/night; 16 hours light; 65% humidity) and watered twice daily. After 15 days the test was evaluated and the assessed scores, from 10 to 0, are tabulated in Table B2 (10=total damage to plant; 0=no damage to plant).

In a further assay the test system is AMARE. The assay is described as follows: Example B1 herbicidal action post-emergence, AMARE. To be noted: Rate 1000 g/ha; sprayed after 8 days cultivation; evaluated after 13 days; scores from 10 to 0 (10=total damage to plant; 0=no damage to plant). As to the method: (§1) Seeds of a variety of test species were sown in standard soil in pots. After 8 days cultivation (post-emergence) under controlled conditions in a glasshouse (at 24/16° C., day/night; 14 hours light; 65% humidity), the plants were sprayed with an aqueous spray solution derived from the formulation of the technical active ingredient in acetone/water (50:50) solution containing 0.5% Tween 20 (polyoxyethelyene sorbitan monolaurate, CAS RN 9005-64-5). The test plants were then grown under controlled conditions in a glasshouse (at 24/16° C., day/night; 14 hours light; 65% humidity) and watered twice daily. After 13 days, the test was evaluated and the assessed scores, from 10 to 0, are tabulated in Table B1 (10=total damage to plant; 0=no damage to plant).

Another assay relates to IPOHE. Briefly: Example B1 herbicidal action post-emergence, IPOHE. To be noted: Rate 1000 g/ha; sprayed after 8 days cultivation; evaluated after 13 days; scores from 10 to 0 (10=total damage to plant; 0=no damage to plant). As to the method: as §1
In another assay the test system is ECHCG. Briefly: Example B1 herbicidal action post-emergence, ECHCG. To be noted: Rate 1000 g/ha; sprayed after 8 days cultivation; evaluated after 13 days; scores from 10 to 0 (10=total damage to plant; 0=no damage to plant). As to the method:
as §1

The test system of a further assay is SETFA. Briefly: Example B1 herbicidal action post-emergence, SETFA. To be noted: Rate 1000 g/ha; sprayed after 8 days cultivation; evaluated after 13 days; scores from 10 to 0 (10=total damage to plant; 0=no damage to plant). As to the method:
as §1

Another assay relates to SOLNI. The assay is described as follows: Example B1 herbicidal action post-emergence, SOLNI. Particulars: Rate 1000 g/ha; sprayed after 8 days cultivation; evaluated after 13 days; scores from 10 to 0 (10=total damage to plant; 0=no damage to plant). As to the method: as §1

As to `CC1(C)c2nccnc2C(O)=C(c2cc(F)ccc2Cl)S1(=O)=O` [Compound F3], in assay [1], the “herbicidal damage score AMARE (10=total damage to plant; 0=no damage to plant)” value was 7, the “herbicidal damage score ECHCG (10=total damage to plant; 0=no damage to plant)” value is given as 4, the “herbicidal damage score IPOHE (10=total damage to plant; 0=no damage to plant)” value is on record as 8 and the “herbicidal damage score SETFA (10=total damage to plant; 0=no damage to plant)” value is recorded as 4.
Consider `C=CCC1c2nccnc2C(O)=C(c2c(F)ccc(Br)c2Cl)S1(=O)=O` (stereo not shown) [Compound E20], for which, in assay [1], the “herbicidal damage score AMARE (10=total damage to plant; 0=no damage to plant)” value came out at 7, the “herbicidal damage score ECHCG (10=total damage to plant; 0=no damage to plant)” value is on record as 2, the “herbicidal damage score IPOHE (10=total damage to plant; 0=no damage to plant)” value is listed as 7 and the “herbicidal damage score SETFA (10=total damage to plant; 0=no damage to plant)” value was found to be 4.
As for `C#CCC1c2nccnc2C(O)=C(c2c(F)ccc(Br)c2Cl)S1(=O)=O` (stereo not shown) [Compound E8], in assay [1], the “herbicidal damage score AMARE (10=total damage to plant; 0=no damage to plant)” value was found to be 8, the “herbicidal damage score ECHCG (10=total damage to plant; 0=no damage to plant)” value was determined as 6, the “herbicidal damage score IPOHE (10=total damage to plant; 0=no damage to plant)” value amounted to 9 and the “herbicidal damage score SETFA (10=total damage to plant; 0=no damage to plant)” value is listed as 6.
Take `O=S1(=O)C(c2c(F)ccc(Br)c2Cl)=C(O)c2nccnc2C12CCCC2` [Compound F8]: in assay [1], the “herbicidal damage score AMARE (10=total damage to plant; 0=no damage to plant)” value was determined as 5, the “herbicidal damage score ECHCG (10=total damage to plant; 0=no damage to plant)” value is listed as 6, the “herbicidal damage score IPOHE (10=total damage to plant; 0=no damage to plant)” value was 8 and the “herbicidal damage score SETFA (10=total damage to plant; 0=no damage to plant)” value is 5.
With `CCCC1c2nccnc2C(O)=C(c2c(F)ccc(Br)c2Cl)S1(=O)=O` (stereo not shown) [Compound E22], in assay [1], the “herbicidal damage score AMARE (10=total damage to plant; 0=no damage to plant)” value was 7, the “herbicidal damage score ECHCG (10=total damage to plant; 0=no damage to plant)” value is 0, the “herbicidal damage score IPOHE (10=total damage to plant; 0=no damage to plant)” value was found to be 7 and the “herbicidal damage score SETFA (10=total damage to plant; 0=no damage to plant)” value was 2.
Consider `C#CCC1(C)c2nccnc2C(O)=C(c2c(Cl)cccc2C(F)(F)F)S1(=O)=O` (stereo not shown) [Compound F10, 7-(2-chloro-6-trifluoromethyl-phenyl)-5-methyl-6,6-dioxo-5-prop-2-ynyl-5,6-dihydro-6-thia-1,4-diaza-naphthalen-8-ol], for which, in assay [1], the “herbicidal damage score AMARE (10=total damage to plant; 0=no damage to plant)” value was 8, the “herbicidal damage score ECHCG (10=total damage to plant; 0=no damage to plant)” value is given as 7, the “herbicidal damage score IPOHE (10=total damage to plant; 0=no damage to plant)” value worked out at 9 and the “herbicidal damage score SETFA (10=total damage to plant; 0=no damage to plant)” value stood at 8.
On to `O=S1(=O)Cc2nccnc2C(O)=C1c1c(Cl)cccc1C(F)(F)F` [Compound C13], for which the “assessed score, application post-emergence, AMARE” value (“assessed score … AMARE” below) in the assay on AMARE was 8. Further, the “assessed score, application post-emergence, IPOHE” value (“assessed score … IPOHE” below) in the assay with IPOHE came out at 8. Moreover, the “assessed score, application post-emergence, ECHCG” value (“assessed score … ECHCG” below) in the assay on ECHCG came out at 8. The “assessed score, application post-emergence, SETFA” value (“assessed score … SETFA” below) in the assay with SETFA came to 8. Besides, in the assay on SOLNI, the “assessed score, application post-emergence, SOLNI” value (“assessed score … SOLNI” below) is 2.
In the case of `O=S1(=O)Cc2nccnc2C(O)=C1c1ccc(Cl)cc1C(F)(F)F` [Compound C17], the “assessed score … AMARE” value in the assay on AMARE is 10. Further, in the assay on IPOHE, the “assessed score … IPOHE” value came to 7. Moreover, the “assessed score … ECHCG” value in the assay with ECHCG is on record as 8. Further, in the assay with SETFA, the “assessed score … SETFA” value is listed as 8. In the assay on SOLNI, the “assessed score … SOLNI” value is 10.
`CC1c2nccnc2C(O)=C(c2c(Cl)cccc2C(F)(F)F)S1(=O)=O` (racemic) [Compound E3]: in the assay on AMARE, the “assessed score … AMARE” value is given as 9. Also, in the assay with IPOHE, the “assessed score … IPOHE” value was 8. Moreover, in the assay on ECHCG, the “assessed score … ECHCG” value stood at 8. For the same compound, the “assessed score … SETFA” value with SETFA worked out at 8. Also, the “assessed score … SOLNI” value in the assay on SOLNI worked out at 8.
As for `CC1c2nccnc2C(O)=C(c2c(F)ccc(Br)c2Cl)S1(=O)=O` (stereo not shown) [Compound E11], in the assay with AMARE, the “assessed score … AMARE” value worked out at 8. Moreover, in the assay on IPOHE, the “assessed score … IPOHE” value came out at 9. Besides, the “assessed score … ECHCG” value with ECHCG was found to be 8. Moreover, in the assay on SETFA, the “assessed score … SETFA” value turned out to be 8. In addition, in the assay on SOLNI, the “assessed score … SOLNI” value is recorded as 10.
Turning to `CC1(C)c2nccnc2C(O)=C(c2c(F)ccc(Br)c2Cl)S1(=O)=O` [Compound F2], the “assessed score … AMARE” value in the assay with AMARE was determined as 10. Also, in the assay with IPOHE, the “assessed score … IPOHE” value is 9. In addition, the “assessed score … ECHCG” value in the assay with ECHCG was 8. In the assay on SETFA, the “assessed score … SETFA” value worked out at 9. In addition, the “assessed score … SOLNI” value with SOLNI was found to be 10.
